Legend:
COX-2 = target: T1, COX-2 (Homo sapiens, UniProt P35354); assay: Human whole blood assay, COX-2 (LPS-induced PGE2 production); type: cell-based; details: Cox-1 U937 IC50 divided by Cox-2 Whole Blood IC50
T1 sequence (P35354 18-604): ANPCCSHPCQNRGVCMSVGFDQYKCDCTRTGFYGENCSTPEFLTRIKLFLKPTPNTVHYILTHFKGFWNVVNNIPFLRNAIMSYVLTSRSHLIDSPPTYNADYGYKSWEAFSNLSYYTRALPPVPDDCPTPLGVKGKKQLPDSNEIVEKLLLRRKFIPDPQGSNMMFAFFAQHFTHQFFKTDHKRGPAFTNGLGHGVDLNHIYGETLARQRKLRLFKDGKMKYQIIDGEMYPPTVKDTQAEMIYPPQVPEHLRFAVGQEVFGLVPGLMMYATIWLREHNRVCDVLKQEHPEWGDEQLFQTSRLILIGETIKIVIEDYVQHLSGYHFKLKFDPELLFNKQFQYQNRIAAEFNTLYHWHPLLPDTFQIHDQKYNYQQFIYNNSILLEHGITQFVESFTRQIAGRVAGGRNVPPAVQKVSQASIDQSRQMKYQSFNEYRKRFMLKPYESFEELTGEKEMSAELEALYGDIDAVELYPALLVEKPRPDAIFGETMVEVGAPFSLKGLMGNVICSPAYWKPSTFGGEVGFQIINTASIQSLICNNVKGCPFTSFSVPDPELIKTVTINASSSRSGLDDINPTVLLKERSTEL
Description: As well, platelets in whole blood contain a large amount of the COX-1 enzyme. Immediately following blood clotting, platelets are activated through a thrombin-mediated mechanism. […] Thus, the effect of test compounds on TxB2 levels following blood clotting can be examined and used as an index for COX-1 activity. Therefore, the degree of selectivity by the test compound can be determined by measuring the levels of PGE2 after LPS induction (COX-2) and TxB2 following blood clotting (COX-1) in the same assay. Fresh blood is collected in heparinized tubes by venipuncture from both male and female volunteers. The subjects have no apparent inflammatory conditions and have not taken any NSAIDs for at least 7 days prior to blood collection. […] At the end of the incubation, the blood is centrifuged at 12,000 x g for 5 minutes to obtain plasma. A 100µL aliquot of plasma is mixed with 400µL of methanol for protein precipitation. The supernatant is obtained and is assayed for PGE2 using a radioimmunoassay kit (Amersham, RPA#530) after conversion of PGE2 to its methyl oximate derivative according to the manufacturer's procedure.

Rat Paw Edema = assay: Rat paw edema assay (carrageenan); type: in vivo; details: male Sprague-Dawley rats, po 1 hr before carrageenan, paw volume 3 hr later; for ED50: Rattus norvegicus
Protocol: Male Sprague-Dawley rats (150-200 g) are fasted overnight and are given, po, either vehicle (1% methocel or 5% Tween 80) or a test compound. One hr later, a line is drawn using a permanent marker at the level above the ankle in one hind paw to define the area of the paw to be monitored. The paw volume (V0) is measured using a plethysmometer (Ugo-Basile, Italy) based on the principle of water displacement. The animals are then injected subplantarly with 50 µl of 1% carrageenan solution in saline (FMC Corp, Maine) into the paw using an insulin syringe with a 25-gauge needle (i.e. 500 µg carrageenan per paw). Three hr later, the paw volume (V3) is measured and the increases in paw volume (V3 - VO) are calculated. The animals are sacrificed by CO2 asphyxiation and the absence or presence of stomach lesions scored. Data is compared with the vehicle-control values and percent inhibition calculated. All treatment groups are coded to eliminate observer bias.

COX-1 = target: T2, COX-1 (Homo sapiens, UniProt P23219); assay: Assay of COX-1 activity from U937 cell microsomes; type: biochemical; details: U937 cells, PGE2 synthesis in presence of AA
T2 construct: endogenous in cells; host or cells: U937 (human) cells; 100,000 x g microsomal fraction
T2 sequence (P23219 24-599): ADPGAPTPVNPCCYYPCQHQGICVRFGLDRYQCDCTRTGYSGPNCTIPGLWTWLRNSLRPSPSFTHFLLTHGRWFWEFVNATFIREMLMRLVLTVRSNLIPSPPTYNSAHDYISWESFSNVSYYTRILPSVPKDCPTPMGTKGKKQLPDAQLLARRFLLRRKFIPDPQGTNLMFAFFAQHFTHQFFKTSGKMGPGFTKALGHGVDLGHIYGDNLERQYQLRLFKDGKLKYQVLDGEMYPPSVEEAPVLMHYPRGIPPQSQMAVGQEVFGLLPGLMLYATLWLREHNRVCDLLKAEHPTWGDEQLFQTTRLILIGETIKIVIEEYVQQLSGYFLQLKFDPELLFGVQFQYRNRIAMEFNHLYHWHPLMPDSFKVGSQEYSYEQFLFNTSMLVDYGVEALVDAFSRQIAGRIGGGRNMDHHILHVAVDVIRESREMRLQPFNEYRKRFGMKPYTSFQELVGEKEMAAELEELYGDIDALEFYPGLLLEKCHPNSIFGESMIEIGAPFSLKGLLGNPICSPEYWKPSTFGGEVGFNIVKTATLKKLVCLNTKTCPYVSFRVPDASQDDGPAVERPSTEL
Protocol: Compounds are tested as inhibitors of cyclooxygenase activity in whole cell cyclooxygenase assays. […] Cells used for these assays are human osteosarcoma 143 cells (which specifically express COX-2) and human U-937 cells (which specifically express COX-1). […] U 937 cells are pelleted by centrifugation at 500 x g for 5 min and washed once with phosphate-buffered saline and repelleted. Cells are resuspended in homogenization buffer consisting of 0.1 M Tris-HCl, pH 7.4, 10 mM EDTA, 2 µg/ml leupeptin, 2 µg/ml soybean trypsin inhibitor, 2 µg/ml aprotinin and 1 mM phenyl methyl sulfonyl fluoride. […] Assays are performed in duplicate in a final volume of 250 µl. Initially, 5 µl of DMSO vehicle or drug in DMSO are added to 20 µl of 0.1 M Tris-HCl buffer, pH 7.4 containing 10 mM EDTA in wells of a 96-deepwell polypropylene titre plate. 200 µl of the microsomal preparation are then added and pre-incubated for 15 min at room temperature before addition of 25 µl of […] arachidonic acid in […] Tris-HCl and 10 mM EDTA, pH 7.4. Samples are incubated for 40 min at room temperature and the reaction is stopped by the addition of 25 µl of 1 N HCl. Samples are neutralized with 25 µl of 1 N NaOH prior to quantitation of PGE2 content by radioimmunoassay (Dupont-NEN or Amersham assay kits). […]

Selectivity Ratio (COX-2)	Compound	ED50 (Rat Paw Edema) [mg/kg]	further results
>8.3	CS(=O)(=O)c1ccc(-c2cc(Br)cnc2-c2cccnc2)cc1 [Example 32]	–	–
0.45	CS(=O)(=O)c1ccc(-c2cccnc2-c2ccc(F)cc2)cc1 [Ab, reference compound]	–	–
–	CS(=O)(=O)c1ccc(-c2cc(C(F)(F)F)cnc2-c2cccnc2)cc1 [Example 7, 3-(4-Methylsulfonyl)phenyl-2-(3-pyridinyl)-5-trifluoromethylpyridine]	1.7	–
–	Cc1ccc(-c2ncc(Cl)cc2-c2ccc(S(C)(=O)=O)cc2)cn1 [Example 23, 5-Chloro-3-(4-methylsulfonyl)phenyl-2-(2-methyl-5-pyridinyl)pyridine]	0.6	–
–	CS(=O)(=O)c1ccc(-c2cccnc2-c2ccccc2)cc1 [Aa, reference compound]	–	Rat Paw Edema (ED50, mg/kg) (Rat Paw Edema): >10 mg/kg; IC50 (COX-1): > 10 µM
